From PubChem BioAssay (NCI)
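Step 1: Grow cells in 96-well plates. Step 2: Expose to compound for 48 hours at 5 concentrations. Step 3: Interpolate endpoints linearly; if unreached, use highest concentration. GI50 = concentration required for 50% inhibition of growth. TGI is the concentration that stops growth completely.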

Tests used:
Experiment in all cases: DTP human tumour cell line panel, 48 h
A498 renal = system: A498 renal
ACHN renal = system: ACHN renal
HL-60(TB) leukemia = system: HL-60(TB) leukemia
IGROV1 ovarian = system: IGROV1 ovarian
MCF7 breast = system: MCF7 breast
MDA-MB-231 breast = system: MDA-MB-231 breast
SF-268 CNS = system: SF-268 CNS
SN12C renal = system: SN12C renal
SNB-75 CNS = system: SNB-75 CNS
SR leukemia = system: SR leukemia

| Structure (SMILES) | GI50 (A498 renal) [µM] | TGI (A498 renal) [µM] | GI50 (ACHN renal) [µM] | TGI (ACHN renal) [µM] | GI50 (HL-60(TB) leukemia) [µM] | TGI (HL-60(TB) leukemia) [µM] | GI50 (IGROV1 ovarian) [µM] | TGI (IGROV1 ovarian) [µM] | GI50 (MCF7 breast) [µM] | TGI (MCF7 breast) [µM] | GI50 (MDA-MB-231 breast) [µM] | TGI (MDA-MB-231 breast) [µM] | GI50 (SF-268 CNS) [µM] | TGI (SF-268 CNS) [µM] | GI50 (SN12C renal) [µM] | TGI (SN12C renal) [µM] | GI50 (SNB-75 CNS) [µM] | TGI (SNB-75 CNS) [µM] | GI50 (SR leukemia) [µM] | TGI (SR leukemia) [µM] |
| --- | --- | --- | --- | --- | --- | --- | --- | --- | --- | --- | --- | --- | --- | --- | --- | --- | --- | --- | --- | --- |
| CC1=C(C(=O)Nc2cc(Cl)c3[nH]ncc3c2)C(c2ccc(C(F)(F)F)cc2)CC(=O)N1 (stereo not given) | 11.7 | > 25 | > 25 | > 25 | > 21.2 | > 25 | > 25 | > 25 | > 16.1 | > 25 | 13.7 | > 25 | 11.7 | > 25 | > 25 | > 25 | 3.13 | > 25 | > 7.84 | > 25 |
| Fc1cccc(-n2ccc(-c3ccccc3)nc2=S)c1 | 17.2 | 33.3 | 16.7 | 30.4 | 94 | > 100 | 25.5 | > 62.2 | 18.5 | 41.2 | 27.9 | > 100 | 32.3 | > 100 | 3.01 | 10.4 | 26.7 | > 70.6 | 53.6 | > 100 |
| CC1(N)CCN(c2cnc(-c3cccc(Cl)c3Cl)c(N)n2)CC1 | 2.49 | 12 | 10.9 | > 100 | 41.9 | > 100 | 6.48 | > 100 | 17.2 | 37.2 | 18.2 | 48.7 | 22.7 | > 100 | 15.6 | > 100 | 7.24 | 27 | 7.6 | 80 |
| Oc1ccc(C2c3ccccc3Oc3ccccc32)c2cccnc12 | 1.74 | 64.4 | 0.845 | 9.58 | 1.94 | > 100 | 1.62 | > 100 | 1.74 | > 100 | 4.36 | > 100 | 1.29 | > 100 | 1.65 | > 100 | 6.96 | > 100 | 1.97 | > 100 |
| CCc1ccc(C(=Nc2ccc(N(C)C(=O)CN3CCN(C)CC3)cc2)c2c(O)[nH]c3ccc(C(=O)OC)cc23)cc1 | 0.398 | 1.96 | 0.332 | 1.43 | 0.328 | 1.01 | 0.0714 | 1.11 | 0.256 | 1.4 | 0.585 | 2.09 | 1.18 | 2.8 | 0.223 | 1.61 | 0.17 | 1.52 | 0.164 | 0.835 |
| CN(Cc1cc(Br)cc(Br)c1O)Cc1c(O)ccc2ccccc12 |  | 36.2 |  | 41.7 |  | 46.1 |  | 44.6 |  | 58.3 |  | 35.6 |  | 74.5 |  | 32 |  | 39.1 |  | 55.6 |
| O=C1C2CCN(CC2)C1(CO)CO |  | > 79.7 |  | 32.3 |  | > 78.6 |  | > 100 |  | 66.4 |  | 44 |  | > 100 |  | 33 |  | > 81.8 |  | 55.3 |
| CN1CCN(c2ccc(NC(=O)c3cncnc3Nc3ccc(OCc4ccccn4)c(Cl)c3)cc2)CC1 | 1.48 | 6.98 | 3.77 | 7.87 | 4.11 | 9.28 | 3.13 | 9.18 | 2.8 | 8.53 | 2 | 6.56 | 5.03 | 11.2 | 3.93 | 8.72 | 4.58 | 9.23 | 0.742 | 2.03 |
| O=NNc1ccc(Sc2ccc(NN=O)cn2)nc1 |  | > 100 |  | > 100 |  | > 100 |  | > 100 |  | > 100 |  | > 100 |  | > 100 |  | > 100 |  | > 100 |  | > 100 |
| CCn1c(-c2nonc2N)nc2c(C#CC(C)(C)O)ncc(OC[C@H]3CCCNC3)c21 | 0.0469 | 0.584 | 25.7 | > 100 | 10.6 | 32 | 0.0876 | 23.2 | 1.05 | 22.9 | 17.8 | 55.6 | 16.1 | 37.4 | 12.7 | 51.1 | 0.0584 | 1.54 | 12 | 41.8 |
| CC(=O)O[C@H]1[C@@H]2OC(=O)C(CSc3ccccc3)[C@@H]2C[C@H]2O[C@]2(C)CC/C=C(\C)CCC[C@@H]1C (stereo not given in full) | 2.17 | 6.37 | 1.8 | 3.82 | 1.4 | 4.69 | 3.05 | 9.38 | 2.62 | 12 | 4.25 | 19.5 | 3.51 | 13.3 | 3.45 | 14.8 | 2.98 | 11.6 | 1.69 | > 20.1 |
